Experiment [1] has as its target T1, erbB2 tyrosine kinase (Homo sapiens, UniProt P04626).
T1 construct: Recombinant intracellular fragments of EGFR, erbB2 and erbB4; made in house; host or cells: baculovirus/Sf21 insect cells
The experiment in a line: Protein tyrosine kinase phosphorylation assay, Test (a), erbB2. It counts as biochemical. The conditions noted are these: ATP at Km concentration; read-out: IC50 Test (a): Inhibition of erbB2 tyrosine kinase protein phosphorylation. The method, then: (§1) This test measures the ability of a test compound to inhibit the phosphorylation of a tyrosine containing polypeptide substrate by EGFR, erbB2 and erbB4 tyrosine kinase enzyme.
(§2) Recombinant intracellular fragments of EGFR, erbB2 and erbB4 (accession numbers X00588, X03363 and L07868 respectively) were cloned and expressed in the baculovirus/Sf21 system. […]
(§3) Constitutive kinase activity of these recombinant proteins was determined by their ability to phosphorylate a synthetic peptide (made up of a random co-polymer of Glutamic Acid, Alanine and Tyrosine in the ratio of 6:3:1). […]
(§4) The immobilised phospho-peptide product of the reaction was detected by immunological methods. […] After further washing, HRP activity in each well of the plate was measured colorimetrically using 22′-Azino-di-[3-ethylbenzthiazoline sulfonate (6)]diammonium salt crystals (ABTS™ from Roche) as a substrate.
(§5) Quantification of colour development and thus enzyme activity was achieved by the measurement of absorbance at 405 nm on a Molecular Devices ThermoMax microplate reader. Kinase inhibition for a given compound was expressed as an IC50 value. […] The range of phosphorylation was calculated from the positive (vehicle plus ATP) and negative (vehicle minus ATP) control values.

For experiment [2], the target named is T2, EGFR tyrosine kinase (Homo sapiens, UniProt P00533).
T2 construct: Recombinant intracellular fragments of EGFR, erbB2 and erbB4; made in house; host or cells: baculovirus/Sf21 insect cells
T2 sequence (P00533 669-1210 limits assumed): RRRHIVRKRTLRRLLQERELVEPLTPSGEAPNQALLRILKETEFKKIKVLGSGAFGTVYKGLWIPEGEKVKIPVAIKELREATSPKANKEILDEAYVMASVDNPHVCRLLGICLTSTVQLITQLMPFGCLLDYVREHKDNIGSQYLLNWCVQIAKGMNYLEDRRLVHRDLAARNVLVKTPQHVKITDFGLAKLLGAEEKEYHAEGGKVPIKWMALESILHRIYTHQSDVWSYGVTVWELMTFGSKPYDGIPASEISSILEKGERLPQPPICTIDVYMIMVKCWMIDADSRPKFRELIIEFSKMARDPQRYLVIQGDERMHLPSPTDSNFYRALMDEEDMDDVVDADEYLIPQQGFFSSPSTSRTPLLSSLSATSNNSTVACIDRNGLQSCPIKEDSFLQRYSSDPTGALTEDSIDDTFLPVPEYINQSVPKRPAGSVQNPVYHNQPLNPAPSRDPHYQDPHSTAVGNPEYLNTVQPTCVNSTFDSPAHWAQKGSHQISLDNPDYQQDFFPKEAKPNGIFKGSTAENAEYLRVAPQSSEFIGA
The experiment in a line: Protein tyrosine kinase phosphorylation assay, Test (a), EGFR. It counts as biochemical. The conditions noted are these: ATP at Km concentration; read-out: IC50 Test (a): Inhibition of EGFR tyrosine kinase protein phosphorylation. Here is the method: as §1, §2, §3, §4, §5

Experiment [3] has as its target T3, erbB2 in MCF7 derived cell line (Clone 24 cells) (Homo sapiens, UniProt P04626).
T3 construct: a cell line that overexpresses full length wild type erbB2 protein; expressed in transfected cells; host or cells: MCF7 (breast carcinoma) cells, 'Clone 24'
The experiment is described as follows: Clone 24 phospho-erbB2 cell assay, Test (c). It is filed as cell-based. Conditions: MCF7 derived Clone 24 cells, 4 hours; read-out: IC50 Test (c): Inhibition of erbB2 tyrosine kinase protein phosphorylation. Here is the method: This immunofluorescence end point assay measures the ability of a test compound to inhibit the phosphorylation of erbB2 in a MCF7 (breast carcinoma) derived cell line which was generated by transfecting MCF7 cells with the full length erbB2 gene using standard methods to give a cell line that overexpresses full length wild type erbB2 protein (hereinafter ‘Clone 24’ cells).
Clone 24 cells were cultured in Growth Medium (phenol red free Dulbecco's modified Eagle's medium (DMEM) containing 10% foetal bovine serum, 2 mM glutamine and 1.2 mg/ml G418) in a 7.5% CO2 air incubator at 37° C. […] Cell density was measured using a haemocytometer and viability was calculated using Trypan Blue solution before being further diluted in Growth Medium and seeded at a density of 1×10^4 cells per well (in 100 μl) into clear bottomed 96 well plates (Packard, No. 6005182). […]
Immunostaining was performed at room temperature. […] Plates were analysed within six hours of completing the immunostaining.
The Fluorescence signal is each well was measured using an Acumen Explorer Instrument (Acumen Bioscience Ltd.), a plate reader that can be used to rapidly quantitate features of images generated by laser-scanning. […]

SMILES strings stand for the structures.

T1 sequence (P04626 676-1255 limits assumed): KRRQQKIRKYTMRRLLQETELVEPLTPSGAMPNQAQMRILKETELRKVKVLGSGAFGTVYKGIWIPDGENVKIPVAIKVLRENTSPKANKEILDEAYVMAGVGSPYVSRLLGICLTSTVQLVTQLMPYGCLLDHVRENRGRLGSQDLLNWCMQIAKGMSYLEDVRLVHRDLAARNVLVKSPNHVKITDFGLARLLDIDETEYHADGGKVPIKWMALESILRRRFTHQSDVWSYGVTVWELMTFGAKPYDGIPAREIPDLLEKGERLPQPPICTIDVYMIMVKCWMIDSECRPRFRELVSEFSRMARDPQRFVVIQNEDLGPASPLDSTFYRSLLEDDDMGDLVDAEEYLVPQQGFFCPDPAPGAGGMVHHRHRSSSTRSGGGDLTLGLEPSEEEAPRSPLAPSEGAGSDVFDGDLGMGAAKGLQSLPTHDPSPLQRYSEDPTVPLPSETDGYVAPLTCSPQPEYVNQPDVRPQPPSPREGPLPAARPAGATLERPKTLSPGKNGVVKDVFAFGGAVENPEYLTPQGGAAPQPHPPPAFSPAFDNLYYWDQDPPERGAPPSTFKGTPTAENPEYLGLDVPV
T3 sequence (P04626 23-1255): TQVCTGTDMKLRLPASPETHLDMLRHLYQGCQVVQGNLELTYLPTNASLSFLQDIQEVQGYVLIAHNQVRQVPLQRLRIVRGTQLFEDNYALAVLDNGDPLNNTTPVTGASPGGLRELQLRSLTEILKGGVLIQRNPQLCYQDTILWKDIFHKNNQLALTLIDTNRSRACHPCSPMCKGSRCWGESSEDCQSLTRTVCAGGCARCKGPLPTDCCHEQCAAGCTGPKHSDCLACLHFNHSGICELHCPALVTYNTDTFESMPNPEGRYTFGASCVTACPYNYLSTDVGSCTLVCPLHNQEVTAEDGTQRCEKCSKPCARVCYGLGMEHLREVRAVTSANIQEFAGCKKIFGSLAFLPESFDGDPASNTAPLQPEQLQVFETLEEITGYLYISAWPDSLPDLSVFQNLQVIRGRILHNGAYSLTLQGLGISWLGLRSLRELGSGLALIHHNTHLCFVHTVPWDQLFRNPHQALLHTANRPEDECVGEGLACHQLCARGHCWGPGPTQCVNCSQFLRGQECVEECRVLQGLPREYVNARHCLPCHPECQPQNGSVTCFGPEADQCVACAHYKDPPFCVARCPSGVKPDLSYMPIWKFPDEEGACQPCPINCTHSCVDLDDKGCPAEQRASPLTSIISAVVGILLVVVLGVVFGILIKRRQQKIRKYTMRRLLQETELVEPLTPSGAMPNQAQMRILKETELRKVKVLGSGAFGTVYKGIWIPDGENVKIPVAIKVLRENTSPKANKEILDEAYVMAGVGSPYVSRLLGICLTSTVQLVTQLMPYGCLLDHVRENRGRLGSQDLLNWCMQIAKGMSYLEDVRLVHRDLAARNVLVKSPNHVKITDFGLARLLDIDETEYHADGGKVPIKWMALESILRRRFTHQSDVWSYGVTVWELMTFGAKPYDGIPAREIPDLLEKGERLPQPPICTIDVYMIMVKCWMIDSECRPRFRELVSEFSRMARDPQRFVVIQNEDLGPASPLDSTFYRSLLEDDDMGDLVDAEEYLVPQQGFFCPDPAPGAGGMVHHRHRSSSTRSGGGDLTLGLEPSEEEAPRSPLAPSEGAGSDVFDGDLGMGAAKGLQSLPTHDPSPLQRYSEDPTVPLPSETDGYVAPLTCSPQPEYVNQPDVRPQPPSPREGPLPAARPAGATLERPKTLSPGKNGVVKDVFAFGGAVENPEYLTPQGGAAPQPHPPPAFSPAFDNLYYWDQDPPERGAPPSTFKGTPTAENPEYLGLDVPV

Consider `O=C(CO)N1CCCC[C@@H]1COc1cccc2ncnc(Nc3ccc4c(ccn4Cc4ccccn4)c3)c12` [Example 1, 2-Oxo-2-((2R)-2-{[(4-{[1-(pyridin-2-ylmethyl)-1H-indol-5-yl]amino}quinazolin-5-yl)oxy]methyl}piperidin-1-yl)ethanol], for which the half-maximal inhibitory concentration (IC50) in experiment [1] and in experiment [2] was 1 nM throughout.
Turning to `O=C(CO)N1CCCC[C@@H]1COc1cccc2ncnc(Nc3ccc4c(ccn4Cc4cscn4)c3)c12` [Example 2, 2-Oxo-2-((2R)-2-{[(4-{[1-(1,3-thiazol-4-ylmethyl)-1H-indol-5-yl]amino}quinazolin-5-yl)oxy]methyl}piperidin-1-yl)ethanol], the IC50 – broadly, the concentration that inhibits the measured activity by half – in experiment [1] was found to be 38 nM; in experiment [3], 35 nM; in experiment [2], 1 nM.
